Patent US9403756B2, “N-phenyl anthranilic acid derivatives and uses thereof” (Ramot at Tel-Aviv University Ltd., priority 2007, dated 2016)

Key:
hippocampal neurons = experiment: Current-clamp recordings in cultured hippocampal neurons; assay type: cell-based, rat
Procedure: For hippocampal neuronal cultures, Sprague-Dawley rat embryos (E18) were removed by caesarian section and their hippocampi were dissected out. The tissue was digested with papain for 20 min, triturated to a single-cell suspension, and plated at a density of 40,000 cells per ml on a substrate of bovine collagen type IV and 100 μg/ml poly-L-lysine in 13 mm diameter glass coverslips of a 24-multiwell plate. The culture medium consisted of Modified Eagle's Medium containing 5% horse serum (Biological Industries, Beit HaEmek, Israel), B-27 neuronal supplement (Invitrogen, Carlsbad, Calif.), 100 U/ml penicillin, 100 μg/ml streptomycin, and 2 mM glutamine. D-glucose was supplemented to a final concentration of 6 g/l. Cytosine-1-D-arabinofuranoside (5 μM) was added after 5 days to arrest glial cell proliferation.
For electrophysiological recordings hippocampal neurons were used at 10-14 days in culture. All cultures were maintained at 37° C. in humidified air containing 5% CO2.
For current-clamp recordings in primary cultured neurons, the patch pipettes were filled with (in mM): 135 KCl, 1 K2ATP, 1 MgATP, 2 EGTA, 1.1 CaCl2, 5 glucose, 10 HEPES, adjusted with KOH at pH 7.4 (315 mOsm). […] A liquid junction potential of about −15.6 mV was measured between the intracellular and saline solutions and corrected on-line. […]

KCNQ2 mutant R214W = molecular target: T1, KCNQ2 mutant R214W (Homo sapiens, UniProt O43526, R214W); experiment: KCNQ2 S4 mutant R214W; assay type: cell-based; conditions: NH29; to a lesser extent
T1 construct: expressed in transfected cells; host or cells: CHO cells
Excerpt: FIGS. 12A-F present the potentiating effect of NH29, an exemplary channel opener compound according to embodiments of the present invention, on selected KCNQ2 mutants. Shown are bar diagrams comparing the potentiating effect of NH29 on native KCNQ2 and KCNQ2 mutants, wherein the mutated amino acids are located at the S1-S2 helix region (FIG. 12A) or S4 helix region (FIG. 12D) and wherein the opener effect is expressed as percent of the control current in the absence of the opener. For comparison, marked as a green line, is the observed current increase of native KCNQ2 by NH29. FIGS. 12B 12C, 12E and 12F present representative traces recorded from CHO cell transfected with the KCNQ2 mutant S122A, S121A, L206C and R201A respectively, before and after external application of 25 μM of NH29 and wherein the membrane potential was stepped from −90 mV holding potential to −40 mV for 1.5 seconds pulse duration.
(§1) Voltage-clamp recordings in CHO cells were performed, using the whole-cell configuration of the patch-clamp technique. Signals were amplified using an Axopatch 200B patch-clamp amplifier (Molecular Devices, Sunnyvale, Calif.), sampled at 2 kHz and filtered at 800 Hz via a 4-pole Bessel low pass filter. […] Series resistances (3-13 MΩ) were compensated (75-90%) and periodically monitored.

wild type KCNQ2 = molecular target: T2, wild type KCNQ2 (Homo sapiens, UniProt O43526); experiment: Wild type KCNQ2 (Kv7.2) currents, patch-clamp; assay type: cell-based; conditions: NH29
T2 construct: expressed in transfected cells; host or cells: CHO cells (printed for the mutants and in the general method)
Excerpt: (§2) FIGS. 10A-D present the potentiating effect of NH29, an exemplary channel opener compound according to embodiments of the present invention, on wild type KCNQ2 (FIGS. 10A and 10B) and R207W mutant (FIGS. 10C and 10D) channels, as expressed in activation curve measurements, showing that NH29 left-shifts the activation curve (ΔV50) by −15.5 mV and −5.5 mV in the case of the wild-type and the mutant, respectively, and showing that NH29 enhances the current of wild-type and the mutant by about 3.4-fold (at −40 mV) and 1.5-fold (at −20 mV), respectively.
as §1, with “filter. Data were acquired using pClamp 9.2 software (Molecular Devices) and an IBM compatible Pentium IV computer in conjunction with a DigiData 1322A interface (Molecular Devices). The patch pipettes were pulled from borosilicate glass (Warner Instrument Corp, USA) with a resistance of 2-5 MΩ.” for “filter.”

KCNQ2 mutant R207W = molecular target: T3, KCNQ2 mutant R207W (Homo sapiens, UniProt O43526, R207W); assay type: cell-based
T3 construct: expressed in transfected cells; host or cells: CHO cells
Excerpt: as §2
FIGS. 11A-F present the potentiating effect of NH29, an exemplary channel opener compound according to embodiments of the present invention, and Retigabine, on KCNQ2 mutants R207W and W236L mutant. Shown are representative traces recorded from CHO cell transfected with the KCNQ2 mutant R207W 0, 1 and 4-4.5 minutes after external application of 25 μM of NH29 and wherein the membrane potential was stepped from −90 mV holding potential to −20 mV for 1.5 seconds pulse duration (FIG. 11A), or 0, 1 and 4 minutes after external application of 25 μM of Retigabine wherein the membrane potential was stepped from −90 mV holding potential to −40 mV for 1.5 seconds pulse duration (FIG. 11B). FIGS. 11C and 11D show representative traces recorded from CHO cells transfected with the KCNQ2 mutant W236L 0, 1 and 6 minutes after external application of 25 μM of NH29 (FIG. 11C) or 0 and 5 minutes after external application of 10 μM of Retigabine (FIG. 11D) and wherein the membrane potential was stepped from −90 mV holding potential to −40 mV for 1.5 seconds pulse duration. FIG. 11E presents superimposed traces, showing the effects of Retigabine (RTG) and NH29 on the channel activity of KCNQ2 mutant W236L as measured at −40 mV; and FIG. 11F presents a bar diagram comparing the potentiating effect of NH29 and Retigabine on native KCNQ2 and KCNQ2 mutants, wherein the opener effect is expressed as percent of the control current in the absence of the opener.
Voltage-clamp recordings in CHO cells were performed, using the whole-cell configuration of the patch-clamp technique. Signals were amplified using an Axopatch 200B patch-clamp amplifier (Molecular Devices, Sunnyvale, Calif.), sampled at 2 kHz and filtered at 800 Hz via a 4-pole Bessel low pass filter. Data were acquired using pClamp 9.2 software (Molecular Devices) and an IBM compatible Pentium IV computer in conjunction with a DigiData 1322A interface (Molecular Devices). The patch pipettes were pulled from borosilicate glass (Warner Instrument Corp, USA) with a resistance of 2-5 MΩ. For K^+ current recordings in CHO cells, the intracellular pipette solution contained (in mM): 130 KCl, 1 MgCl2, 5 K2ATP, 5 EGTA, 10 HEPES, adjusted with KOH to pH 7.4 (290 mOsm). The extracellular solution contained (in mM): 140 NaCl, 4 KCl, 1.8 CaCl2, 1.2 MgCl2, 11 glucose, 5.5 HEPES, adjusted with NaOH to pH 7.4 (310 mOsm). Series resistances (3-13 MΩ) were compensated (75-90%) and periodically monitored.

T3 sequence (O43526 whole entry R207W): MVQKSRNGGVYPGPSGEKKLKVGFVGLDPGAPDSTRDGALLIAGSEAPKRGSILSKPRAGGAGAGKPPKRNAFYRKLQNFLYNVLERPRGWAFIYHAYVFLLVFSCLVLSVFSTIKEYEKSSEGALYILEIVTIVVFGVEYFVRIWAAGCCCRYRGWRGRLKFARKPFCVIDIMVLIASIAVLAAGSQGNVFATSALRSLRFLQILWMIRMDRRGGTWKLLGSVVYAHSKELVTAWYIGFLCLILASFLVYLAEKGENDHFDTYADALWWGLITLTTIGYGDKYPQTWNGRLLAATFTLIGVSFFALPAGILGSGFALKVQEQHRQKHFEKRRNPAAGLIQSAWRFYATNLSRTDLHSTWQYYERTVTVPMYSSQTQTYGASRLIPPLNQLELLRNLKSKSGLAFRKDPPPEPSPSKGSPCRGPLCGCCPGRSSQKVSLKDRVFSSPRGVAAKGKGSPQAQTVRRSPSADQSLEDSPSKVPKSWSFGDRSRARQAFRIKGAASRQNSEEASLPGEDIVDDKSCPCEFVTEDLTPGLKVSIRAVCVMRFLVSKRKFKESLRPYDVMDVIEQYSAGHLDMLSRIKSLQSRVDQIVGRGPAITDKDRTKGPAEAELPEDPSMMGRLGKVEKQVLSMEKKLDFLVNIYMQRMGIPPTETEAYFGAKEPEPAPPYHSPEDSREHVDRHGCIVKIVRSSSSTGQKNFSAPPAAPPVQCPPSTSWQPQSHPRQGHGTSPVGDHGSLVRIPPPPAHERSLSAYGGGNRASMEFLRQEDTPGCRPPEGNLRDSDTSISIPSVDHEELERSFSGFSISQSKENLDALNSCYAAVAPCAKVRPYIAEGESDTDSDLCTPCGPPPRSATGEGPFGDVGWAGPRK
T2 sequence (O43526 whole entry): as the sequence (O43526 whole entry R207W) above, with W207R counted along it
T1 sequence (O43526 whole entry R214W): as the sequence (O43526 whole entry R207W) above, with W207R, R214W counted along it

SMILES	number of evoked action potentials (hippocampal neurons; 25 μM NH25, 75-200 pA for 400 ms, control 9.6±1.0, n=8)	hyperpolarization of resting membrane potential (hippocampal neurons; NH25)	sensitivity to the activating effect compared to wild-type Kv7.2 (KCNQ2 mutant R214W)	left-shift of the activation curve (ΔV50) (wild type KCNQ2)	effect of point mutation R207W on the opener effect (KCNQ2 mutant R207W; 25 μM)	fold enhancement of current (KCNQ2 mutant R207W; 25 μM NH29, at −20 mV)	left-shift of the activation curve (ΔV50) (KCNQ2 mutant R207W; NH29)
O=C(Cc1cc([N+](=O)[O-])ccc1Nc1c(Cl)cccc1Cl)OCCO [NH25]	2.1±0.5	−8.5 mV	–	–	–	–	–
O=C(Cc1cc([N+](=O)[O-])cc([N+](=O)[O-])c1Nc1c(Cl)cc([N+](=O)[O-])cc1Cl)NCCO [NH29]	–	–	significantly less sensitive	−15.5 mV	completely abolished the opener effect	~1.5 fold	−5.5 mV
